# Assay results reported in patent US20210145951A1, “COMPOSITIONS AND METHODS FOR SHARED NEO-EPITOPE VACCINES” (Epivax Oncology, Inc., priority 2019, published 2021).
# Legend:
# CT26 tumor cells = experiment: CT26 tumor growth and survival after vaccination (Example 1); type: in vivo; conditions: CT26 in Balb/c mice
# [1] = test system: CT26 murine colon tumor cells; experiment: CT26 tumor growth with or without poly-ICLC (Example 13); type: in vivo, BALB/c mice; conditions: day 25 post-tumor implantation, relative to PBS or poly-ICLC alone
# Experimental: The goal of this experiment was to determine the requirement for the inclusion of the adjuvant poly-ICLC in a peptide vaccine containing ANCER™ selected neoantigens. For this experiment, female BALB/c mice were implanted subcutaneously with 3×10^5 CT26 murine colon tumor cells. Tumor growth was monitored by caliper measurement and mice were sacrificed 45 days after tumor implantation or when tumor volumes reached 2000 mm^3, whichever came first.
# Four vaccine groups were tested (n=10 mice/group):
# Peptide vaccines were comprised of 20 different ANCER™ selected peptides at a concentration of 5 μg/peptide for a total dose of 100 μg peptide per immunization. Mice were immunized subcutaneously in the opposite flank from tumor implantation twice per week for three weeks, starting at day 4 post-tumor implantation.
substance,measurement,setting,value
poly-ICLC,"mice reaching a tumor volume of at least 2,000 mm^3 (endpoint) by day 28",CT26 tumor cells; N=10,60%
same,mice that survived past day 28,CT26 tumor cells; N=10,Less than 50%
same,mice that survived the 45 days of the experiment,"CT26 tumor cells; N=10, in words",None
same,tumor burden compared to Group 1 (PBS),CT26 tumor cells; sc injections days 5-26,no reduction in tumor burden
same,control of tumor growth,[1],no difference in tumor growth kinetics
